Holding throughout (experiment): greenhouse pre-emergence herbicidal test
What all share (type): in vivo

One assay relates to Setaria faberi. From the text:
(§1) The seeds of the test plants were sown separately for each species. For the pre-emergence treatment, the active ingredients, which had been suspended or emulsified in water, were applied directly after sowing by means of finely distributing nozzles. The containers were irrigated gently to promote germination and growth and subsequently covered with transparent plastic hoods until the plants had rooted. This cover caused uniform germination of the test plants, unless this had been impaired by the active ingredients. […] The test period extended over 2 to 4 weeks. During this time, the plants were tended, and their response to the individual treatments was evaluated. Evaluation was carried out using a scale from 0 to 100. 100 means no emergence of the plants, or complete destruction of at least the aerial moieties, and 0 means no damage, or normal course of growth. A moderate herbicidal activity is given at values of at least 60, a good herbicidal activity is given at values of at least 70, and a very good herbicidal activity is given at values of at least 85. The plants used in the greenhouse experiments were of the following species: [table]

For a further assay, the system named is Amaranthus retroflexus.
Text: as §1

A further assay concerns Alopercurus myosuroides. An excerpt: (§2) The culture containers used were plastic flowerpots containing loamy sand with approximately 3.0% of humus as the substrate. The seeds of the test plants were sown separately for each species.
(§3) For the pre-emergence treatment, the active ingredients, which had been suspended or emulsified in water, were applied directly after sowing by means of finely distributing nozzles.
(§4) The containers were irrigated gently to promote germination and growth and subsequently covered with transparent plastic hoods until the plants had rooted. This cover caused uniform germination of the test plants, unless this had been impaired by the active ingredients.
(§5) Depending on the species, the plants were kept at 10-25° C. or 20-35° C., respectively.
(§6) The test period extended over 2 to 4 weeks. During this time, the plants were tended, and their response to the individual treatments was evaluated.
(§7) Evaluation was carried out using a scale from 0 to 100. 100 means no emergence of the plants, or complete destruction of at least the aerial moieties, and 0 means no damage, or normal course of growth. A moderate herbicidal activity is given at values of at least 60, a good herbicidal activity is given at values of at least 70, and a very good herbicidal activity is given at values of at least 85.
(§8) The plants used in the greenhouse experiments were of the following species: […]

The test system of the next assay is Echinocloa crus-galli.
Text: as §1

The next assay deals with Abutilon theophrasti.
Text: as §2, §3, §4, §5, §6, §7, §8

The subject of another assay is Digitaria sanguinalis.
Text: as §2, §3, §4, §5, §6, §7, §8

As to `COc1c(Br)cc(Cl)c(C)c1Nc1nc(N)nc(C(C)(F)CCl)n1` (racemic) [Example 98], the herbicidal activity in the assay on Setaria faberi (62 g/ha), with Amaranthus retroflexus (62 g/ha) and in the assay on Alopercurus myosuroides (62 g/ha) was 100% each time.

For the molecule `COc1c(Cl)cc(Cl)c(Cl)c1Nc1nc(N)nc(C(C)(C)F)n1` [Example 2], the herbicidal activity with Echinocloa crus-galli (62.5 g/ha), in the assay with Echinocloa crus-galli (250 g/ha), with Setaria faberi (250 g/ha), in the assay with Amaranthus retroflexus (250 g/ha), with Abutilon theophrasti (62.5 g/ha) and in the assay on Digitaria sanguinalis (62.5 g/ha) was 100% each time.

Regarding `COc1c(F)ccc(Br)c1Nc1nc(N)nc(C(C)(C)F)n1` [Example 3, N4-(6-bromo-3-fluoro-2-methoxy-phenyl)-6-(1-fluoro-1-methyl-ethyl)-1,3,5-triazine-2,4-diamine], the herbicidal activity in the assay on Echinocloa crus-galli (62.5 g/ha), with Setaria faberi (250 g/ha), with Amaranthus retroflexus (250 g/ha), in the assay with Abutilon theophrasti (62.5 g/ha), in the assay with Abutilon theophrasti (250 g/ha) and with Digitaria sanguinalis (62.5 g/ha) was 100% each time.

With `COc1c(Cl)cc(F)c(Cl)c1Nc1nc(N)nc(C(C)(C)F)n1` [Example 10], the herbicidal activity in the assay with Setaria faberi (250 g/ha), in the assay with Amaranthus retroflexus (32 g/ha), in the assay with Amaranthus retroflexus (250 g/ha), in the assay on Abutilon theophrasti (32 g/ha), with Abutilon theophrasti (250 g/ha) and in the assay with Digitaria sanguinalis (32 g/ha) was 100% each time.

Consider `COc1c(Cl)cc(Br)c(Cl)c1Nc1nc(N)nc(C(C)(C)F)n1` [Example 12], for which the herbicidal activity in the assay on Echinocloa crus-galli (250 g/ha), in the assay with Setaria faberi (250 g/ha), in the assay with Amaranthus retroflexus (250 g/ha), in the assay on Abutilon theophrasti (250 g/ha) and with Alopercurus myosuroides (250 g/ha) was 100% throughout.

Consider `COc1c(F)cc(F)c(Br)c1Nc1nc(N)nc(C(C)(C)F)n1` [Example 13], for which the herbicidal activity in the assay on Echinocloa crus-galli (31 g/ha), in the assay on Echinocloa crus-galli (62.5 g/ha), in the assay with Setaria faberi (62.5 g/ha), in the assay on Amaranthus retroflexus (31 g/ha), with Abutilon theophrasti (31 g/ha) and in the assay on Alopercurus myosuroides (62.5 g/ha) was 100% each time.

For the molecule `COc1c(C)ccc(C)c1Nc1nc(N)nc(C(C)(C)F)n1` [Example 14], the herbicidal activity with Echinocloa crus-galli (62 g/ha) was 100%; with Echinocloa crus-galli (125 g/ha) it was 98%; in the assay with Setaria faberi (125 g/ha), 100%; with Amaranthus retroflexus (62 g/ha), 100%; with Abutilon theophrasti (62 g/ha), 100%; in the assay with Alopercurus myosuroides (125 g/ha), 98%.

In the case of `COc1c(F)cc(F)c(C(F)(F)F)c1Nc1nc(N)nc(C(C)(C)F)n1` [Example 19], the herbicidal activity in the assay on Echinocloa crus-galli (62 g/ha), with Echinocloa crus-galli (62.5 g/ha), in the assay on Setaria faberi (62 g/ha), in the assay with Amaranthus retroflexus (62.5 g/ha), in the assay with Abutilon theophrasti (62.5 g/ha) and in the assay with Alopercurus myosuroides (62 g/ha) was 100% throughout.

Regarding `COc1c(Cl)ccc(Cl)c1Nc1nc(N)nc(C(C)(C)F)n1` [Example 20], the herbicidal activity with Echinocloa crus-galli (62 g/ha), in the assay on Echinocloa crus-galli (62.5 g/ha), in the assay with Setaria faberi (62 g/ha), in the assay on Amaranthus retroflexus (62.5 g/ha), in the assay on Abutilon theophrasti (62.5 g/ha) and with Alopercurus myosuroides (62 g/ha) was 100% in each case.

On to `CC#CCOc1c(Br)cc(F)c(C)c1Nc1nc(N)nc(C(C)(C)F)n1` [Example 21], for which the herbicidal activity stood at 100% in the assay with Echinocloa crus-galli (62 g/ha); 100% with Echinocloa crus-galli (62.5 g/ha); 100% in the assay on Setaria faberi (62 g/ha); 100% with Setaria faberi (62.5 g/ha); 95% in the assay on Amaranthus retroflexus (62.5 g/ha); 100% with Alopercurus myosuroides (62 g/ha).

For `CC#CCOc1c(Br)cc(F)c(Cl)c1Nc1nc(N)nc(C(C)(C)F)n1` [Example 32], the herbicidal activity with Echinocloa crus-galli (62.5 g/ha), in the assay on Setaria faberi (62 g/ha), in the assay on Amaranthus retroflexus (62.5 g/ha), in the assay with Abutilon theophrasti (62 g/ha), with Abutilon theophrasti (62.5 g/ha) and in the assay with Alopercurus myosuroides (62 g/ha) was 100% throughout.

For `COc1c(Cl)cc(Cl)c(C)c1Nc1nc(N)nc(C(F)(F)F)n1` [Example 33], the herbicidal activity with Echinocloa crus-galli (62.5 g/ha) is recorded as 98%; with Echinocloa crus-galli (125 g/ha) it was 100%; in the assay on Setaria faberi (125 g/ha), 100%; with Amaranthus retroflexus (62.5 g/ha), 100%; in the assay with Abutilon theophrasti (62.5 g/ha), 100%; in the assay on Alopercurus myosuroides (125 g/ha), 100%.

For the molecule `COc1c(F)ccc(Cl)c1Nc1nc(N)nc(C2(F)CCCC2)n1` [Example 53], the herbicidal activity is 100% with Echinocloa crus-galli (62 g/ha); 98% in the assay on Echinocloa crus-galli (62.5 g/ha); 100% in the assay with Setaria faberi (62.5 g/ha); 100% with Amaranthus retroflexus (62 g/ha); 100% in the assay with Abutilon theophrasti (62 g/ha); 90% with Alopercurus myosuroides (62.5 g/ha).

As to `COc1c(F)cc(C)c(C)c1Nc1nc(N)nc(C(C)(C)F)n1` [Example 54], the herbicidal activity with Echinocloa crus-galli (62 g/ha), in the assay with Echinocloa crus-galli (62.5 g/ha), in the assay with Amaranthus retroflexus (62 g/ha), in the assay on Abutilon theophrasti (62 g/ha), in the assay with Abutilon theophrasti (62.5 g/ha) and in the assay with Alopercurus myosuroides (62.5 g/ha) was 100% throughout.

With `CC#CCOc1c(F)cc(Br)c(Cl)c1Nc1nc(N)nc(C(C)(C)F)n1` [Example 59], the herbicidal activity was found to be 95% in the assay with Echinocloa crus-galli (62.5 g/ha); 100% with Setaria faberi (62 g/ha); 100% with Setaria faberi (62.5 g/ha); 100% with Amaranthus retroflexus (62 g/ha); 100% in the assay on Abutilon theophrasti (62.5 g/ha); 95% with Alopercurus myosuroides (62 g/ha).

Consider `COc1c(Cl)cc(Br)c(C)c1Nc1nc(N)nc(C2(F)CCCC2)n1` [Example 61], for which the herbicidal activity in the assay with Echinocloa crus-galli (31 g/ha) amounted to 100%; in the assay on Echinocloa crus-galli (62 g/ha) it was 70%; with Setaria faberi (62 g/ha), 85%; with Amaranthus retroflexus (31 g/ha), 100%; in the assay with Abutilon theophrasti (31 g/ha) it was 100%; with Alopercurus myosuroides (62 g/ha), 75%.

`COc1c(Cl)cc(C)c(Cl)c1Nc1nc(N)nc(C(C)(C)F)n1` [Example 63]: the herbicidal activity in the assay with Echinocloa crus-galli (62 g/ha) is recorded as 100%; in the assay with Setaria faberi (31 g/ha), 100%; in the assay on Amaranthus retroflexus (31 g/ha), 80%; with Amaranthus retroflexus (62 g/ha) it was 100%; in the assay on Abutilon theophrasti (62 g/ha), 100%; in the assay with Alopercurus myosuroides (31 g/ha) it was 80%.

For `COc1c(Cl)cc(F)c(C)c1Nc1nc(N)nc(C(C)(F)CCl)n1` (stereo not drawn) [Example 68], the herbicidal activity in the assay with Echinocloa crus-galli (62 g/ha), in the assay on Setaria faberi (62 g/ha), with Amaranthus retroflexus (62 g/ha) and with Abutilon theophrasti (62 g/ha) was 100% in each case.

For `COc1c(Cl)cc(F)c(C)c1Nc1nc(N)nc(C(C)F)n1` (stereo not drawn) [Example 69], the herbicidal activity with Echinocloa crus-galli (62 g/ha), in the assay on Setaria faberi (62 g/ha), in the assay on Amaranthus retroflexus (62 g/ha) and in the assay with Abutilon theophrasti (62 g/ha) was 100% each time.

Turning to `COc1c(Cl)cc(F)c(C)c1Nc1nc(N)nc(C(C)(C)F)n1` [Example 70], the herbicidal activity in the assay with Echinocloa crus-galli (62 g/ha), in the assay with Setaria faberi (62 g/ha), in the assay with Amaranthus retroflexus (62 g/ha) and with Abutilon theophrasti (62 g/ha) was 100% throughout.

With `COc1c(Cl)ccc(Cl)c1Nc1nc(N)nc(C(C)F)n1` (stereo not drawn) [Example 71], the herbicidal activity in the assay on Echinocloa crus-galli (62 g/ha), in the assay with Setaria faberi (62 g/ha), in the assay on Amaranthus retroflexus (62 g/ha) and in the assay on Abutilon theophrasti (62 g/ha) was 100% throughout.

Regarding `COc1c(Cl)cc(F)c(C)c1Nc1nc(N)nc(C2(F)CC2)n1` [Example 92], the herbicidal activity in the assay with Echinocloa crus-galli (62 g/ha), in the assay on Echinocloa crus-galli (62.5 g/ha), in the assay with Setaria faberi (62 g/ha), in the assay with Amaranthus retroflexus (62 g/ha), with Abutilon theophrasti (62.5 g/ha) and in the assay with Alopercurus myosuroides (62.5 g/ha) was 100% in each case.

Turning to `COc1c(Cl)cc(Cl)c(C)c1Nc1nc(N)nc(C2(F)CC2)n1` [Example 93], the herbicidal activity with Echinocloa crus-galli (62 g/ha) is 100%; in the assay on Setaria faberi (62 g/ha) it was 100%; with Setaria faberi (62.5 g/ha) it was 70%; with Amaranthus retroflexus (62 g/ha) it was 100%; in the assay on Amaranthus retroflexus (62.5 g/ha), 100%; in the assay on Abutilon theophrasti (62.5 g/ha), 80%.

Regarding `COc1c(Br)cc(Cl)c(C)c1Nc1nc(N)nc(C(C)(F)F)n1` [Example 97], the herbicidal activity in the assay on Setaria faberi (62 g/ha) is recorded as 85%; with Amaranthus retroflexus (62 g/ha), 85%; with Alopercurus myosuroides (62 g/ha) it was 70%.

The record behind these values is patent US20240150303A1, “DIAMINOTRIAZINE COMPOUNDS” (BASF SE, priority 2021, published 2024).
